According to patent publication US20120122860A1, “SOLID FORMS OF SULFONAMIDES AND AMINO ACIDS” (Plexxikon, Inc., priority 2009, published 2012):

What was measured:
[1] = target: Src (Homo sapiens, UniProt P12931); assay: Kinase activity assay, Src
[2] = target: C-Raf (Homo sapiens, UniProt P04049); assay: Kinase activity assay, C-Raf
[3] = target: Kit (Homo sapiens, UniProt P10721); assay: Kinase activity assay, Kit
[4] = target: Kdr (Homo sapiens, UniProt P35968); assay: Kinase activity assay, Kdr
[5] = target: B-Raf (Homo sapiens, UniProt P15056); assay: Kinase activity assay, B-Raf; format: biochemical; conditions: read-out: activity toward kinase B-Raf, IC50
[6] = target: B-Raf V600E (Homo sapiens, UniProt P15056, V600E); assay: Kinase activity assay, B-Raf V600E; format: biochemical; conditions: read-out: activity toward kinase B-Raf V600E, IC50
[7] = target: Fms (Homo sapiens, UniProt P07333); assay: Kinase activity assay, Fms

Measured: IC50

Kdr, sequence (P35968 20-1356): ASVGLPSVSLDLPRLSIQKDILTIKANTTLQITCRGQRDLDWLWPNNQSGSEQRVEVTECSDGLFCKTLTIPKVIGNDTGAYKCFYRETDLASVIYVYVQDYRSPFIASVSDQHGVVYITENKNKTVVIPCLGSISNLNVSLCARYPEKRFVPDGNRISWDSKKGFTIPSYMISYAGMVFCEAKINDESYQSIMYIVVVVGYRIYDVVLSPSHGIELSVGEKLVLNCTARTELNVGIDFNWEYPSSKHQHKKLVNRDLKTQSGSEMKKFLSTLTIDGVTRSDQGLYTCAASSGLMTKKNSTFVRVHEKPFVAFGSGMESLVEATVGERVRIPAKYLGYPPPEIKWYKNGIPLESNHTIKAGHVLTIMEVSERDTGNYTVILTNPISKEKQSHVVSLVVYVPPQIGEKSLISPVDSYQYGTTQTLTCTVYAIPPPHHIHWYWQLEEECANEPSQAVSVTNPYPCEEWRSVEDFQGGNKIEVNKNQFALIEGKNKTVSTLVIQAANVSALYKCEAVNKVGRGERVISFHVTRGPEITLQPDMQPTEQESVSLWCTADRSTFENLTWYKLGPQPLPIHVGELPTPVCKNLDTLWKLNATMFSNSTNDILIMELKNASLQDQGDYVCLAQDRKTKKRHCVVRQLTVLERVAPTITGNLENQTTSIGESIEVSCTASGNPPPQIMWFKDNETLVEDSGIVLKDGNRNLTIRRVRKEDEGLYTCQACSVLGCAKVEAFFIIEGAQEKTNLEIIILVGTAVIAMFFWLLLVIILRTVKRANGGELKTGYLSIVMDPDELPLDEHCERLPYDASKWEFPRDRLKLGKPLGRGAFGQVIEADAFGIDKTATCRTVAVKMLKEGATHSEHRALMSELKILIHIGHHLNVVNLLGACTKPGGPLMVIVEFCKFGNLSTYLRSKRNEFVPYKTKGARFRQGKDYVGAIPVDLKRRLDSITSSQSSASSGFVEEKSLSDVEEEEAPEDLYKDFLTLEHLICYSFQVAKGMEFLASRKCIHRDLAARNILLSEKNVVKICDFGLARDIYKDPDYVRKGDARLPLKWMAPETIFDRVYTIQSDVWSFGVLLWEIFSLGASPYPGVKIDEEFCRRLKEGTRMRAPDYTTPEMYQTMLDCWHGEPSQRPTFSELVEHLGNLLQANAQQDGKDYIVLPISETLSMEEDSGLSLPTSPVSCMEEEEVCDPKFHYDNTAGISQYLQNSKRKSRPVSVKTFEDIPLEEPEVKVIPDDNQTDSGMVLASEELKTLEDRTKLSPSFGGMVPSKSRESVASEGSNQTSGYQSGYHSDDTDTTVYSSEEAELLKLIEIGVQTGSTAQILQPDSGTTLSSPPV
B-Raf V600E, sequence (P15056 whole entry V600E): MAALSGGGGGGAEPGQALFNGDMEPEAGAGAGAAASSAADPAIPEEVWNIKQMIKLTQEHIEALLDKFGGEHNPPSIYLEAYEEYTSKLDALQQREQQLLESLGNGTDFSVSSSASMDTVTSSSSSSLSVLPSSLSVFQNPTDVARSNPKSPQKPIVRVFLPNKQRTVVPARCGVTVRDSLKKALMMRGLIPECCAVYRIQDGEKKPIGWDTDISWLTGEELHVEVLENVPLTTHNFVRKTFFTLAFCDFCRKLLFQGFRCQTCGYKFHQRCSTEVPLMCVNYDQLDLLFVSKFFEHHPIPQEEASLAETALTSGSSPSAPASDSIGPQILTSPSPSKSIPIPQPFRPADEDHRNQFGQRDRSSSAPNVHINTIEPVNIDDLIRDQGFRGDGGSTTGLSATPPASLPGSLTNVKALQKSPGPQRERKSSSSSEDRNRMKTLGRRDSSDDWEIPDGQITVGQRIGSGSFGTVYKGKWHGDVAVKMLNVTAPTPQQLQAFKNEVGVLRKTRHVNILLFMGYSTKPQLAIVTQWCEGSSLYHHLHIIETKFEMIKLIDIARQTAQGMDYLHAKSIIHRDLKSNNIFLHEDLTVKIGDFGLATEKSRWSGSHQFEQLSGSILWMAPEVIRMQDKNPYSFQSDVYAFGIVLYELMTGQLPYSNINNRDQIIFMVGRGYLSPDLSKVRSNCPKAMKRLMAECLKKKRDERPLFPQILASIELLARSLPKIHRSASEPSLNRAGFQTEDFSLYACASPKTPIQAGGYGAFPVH
Src, sequence (P12931 whole entry): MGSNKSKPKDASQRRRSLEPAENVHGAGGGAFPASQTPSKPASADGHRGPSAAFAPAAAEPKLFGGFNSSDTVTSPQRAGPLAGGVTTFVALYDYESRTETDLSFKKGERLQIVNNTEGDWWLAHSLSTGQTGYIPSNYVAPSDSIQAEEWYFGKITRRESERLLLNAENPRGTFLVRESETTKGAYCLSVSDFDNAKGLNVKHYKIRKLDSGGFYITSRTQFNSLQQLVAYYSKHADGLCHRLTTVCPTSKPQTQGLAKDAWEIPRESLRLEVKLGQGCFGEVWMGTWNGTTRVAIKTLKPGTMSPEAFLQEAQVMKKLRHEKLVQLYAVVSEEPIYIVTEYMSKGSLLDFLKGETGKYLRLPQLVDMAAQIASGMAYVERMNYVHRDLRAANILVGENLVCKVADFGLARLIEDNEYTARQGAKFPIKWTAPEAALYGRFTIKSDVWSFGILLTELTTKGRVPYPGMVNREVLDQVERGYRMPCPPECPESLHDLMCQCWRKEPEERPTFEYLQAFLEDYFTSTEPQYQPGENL
Kit, sequence (P10721 26-976): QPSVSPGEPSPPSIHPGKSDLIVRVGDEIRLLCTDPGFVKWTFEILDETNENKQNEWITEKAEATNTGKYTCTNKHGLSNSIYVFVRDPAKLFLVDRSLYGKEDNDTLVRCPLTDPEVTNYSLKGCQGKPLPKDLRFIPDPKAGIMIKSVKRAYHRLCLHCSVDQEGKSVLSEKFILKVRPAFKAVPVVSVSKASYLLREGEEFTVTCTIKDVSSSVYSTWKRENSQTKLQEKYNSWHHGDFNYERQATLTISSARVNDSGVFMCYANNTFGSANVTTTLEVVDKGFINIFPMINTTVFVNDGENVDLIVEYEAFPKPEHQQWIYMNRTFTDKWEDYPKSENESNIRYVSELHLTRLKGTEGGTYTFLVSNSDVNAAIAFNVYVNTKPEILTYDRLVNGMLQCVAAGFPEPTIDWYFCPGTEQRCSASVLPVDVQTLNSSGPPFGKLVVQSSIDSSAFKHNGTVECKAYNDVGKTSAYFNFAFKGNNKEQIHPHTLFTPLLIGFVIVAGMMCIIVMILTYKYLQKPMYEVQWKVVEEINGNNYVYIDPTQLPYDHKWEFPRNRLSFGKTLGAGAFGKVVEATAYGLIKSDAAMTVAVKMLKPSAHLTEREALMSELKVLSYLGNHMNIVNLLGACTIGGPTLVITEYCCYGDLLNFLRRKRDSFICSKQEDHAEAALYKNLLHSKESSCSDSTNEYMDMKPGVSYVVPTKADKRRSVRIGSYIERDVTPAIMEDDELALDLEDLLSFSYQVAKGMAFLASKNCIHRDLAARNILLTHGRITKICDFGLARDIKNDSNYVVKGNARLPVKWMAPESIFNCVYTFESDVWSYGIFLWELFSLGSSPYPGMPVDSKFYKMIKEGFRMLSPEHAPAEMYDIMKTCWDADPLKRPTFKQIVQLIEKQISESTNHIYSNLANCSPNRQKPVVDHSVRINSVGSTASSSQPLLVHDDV
C-Raf, sequence (P04049 whole entry): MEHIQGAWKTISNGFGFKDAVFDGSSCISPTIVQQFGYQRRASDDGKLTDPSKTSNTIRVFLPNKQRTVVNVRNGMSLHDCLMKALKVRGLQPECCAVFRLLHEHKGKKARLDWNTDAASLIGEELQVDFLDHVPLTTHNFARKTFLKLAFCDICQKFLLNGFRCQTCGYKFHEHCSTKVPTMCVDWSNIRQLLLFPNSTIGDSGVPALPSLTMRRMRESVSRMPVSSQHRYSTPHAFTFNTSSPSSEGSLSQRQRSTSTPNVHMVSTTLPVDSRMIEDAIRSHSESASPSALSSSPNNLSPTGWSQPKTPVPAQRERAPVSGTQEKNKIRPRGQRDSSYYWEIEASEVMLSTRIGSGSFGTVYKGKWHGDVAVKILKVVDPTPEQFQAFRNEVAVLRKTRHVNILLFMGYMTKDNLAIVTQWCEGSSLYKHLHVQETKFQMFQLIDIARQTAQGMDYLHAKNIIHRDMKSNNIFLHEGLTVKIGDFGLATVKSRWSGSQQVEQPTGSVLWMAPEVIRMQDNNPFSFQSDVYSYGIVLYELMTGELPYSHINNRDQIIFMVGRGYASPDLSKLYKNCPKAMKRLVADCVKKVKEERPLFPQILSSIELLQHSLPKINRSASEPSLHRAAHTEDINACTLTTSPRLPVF
B-Raf, sequence (P15056 whole entry): as the sequence (P15056 whole entry V600E) above, with E600V counted along it

COc1ccnc2[nH]cc(C(=O)c3c(F)ccc(NS(=O)(=O)c4ccc(F)cc4F)c3F)c12 [P-2032, N-[2,4-Difluoro-3-(4-methoxy-1H-pyrrolo[2,3-b]pyridine-3-carbonyl)-phenyl]-2,4-difluoro-benzenesulfonamide]
not listed: [7]
≤ 10 µM: all other assays above

N#Cc1cnc2[nH]cc(C(=O)c3cccc(NS(=O)(=O)c4ccc(F)cc4F)c3F)c2c1 [P-2055, N-[3-(5-Cyano-1H-pyrrolo[2,3-b]pyridine-3-carbonyl)-2-fluoro-phenyl]-2,4-difluoro-benzenesulfonamide]
not listed: [7]
≤ 10 µM: all other assays above

O=C(c1cc(NS(=O)(=O)c2ccc(Cl)cc2)ccc1F)c1c[nH]c2ncc(Cl)cc12 [P-2106, 4-Chloro-N-[3-(5-chloro-1H-pyrrolo[2,3-b]pyridine-3-carbonyl)-4-fluoro-phenyl]-benzenesulfonamide]
≤ 10 µM: [7] | [3] | [4] | [5]

O=C(c1cc(NS(=O)(=O)c2ccc(F)cc2)ccc1F)c1c[nH]c2ncc(Cl)cc12 [P-2107, N-[3-(5-Chloro-1H-pyrrolo[2,3-b]pyridine-3-carbonyl)-4-fluoro-phenyl]-4-fluoro-benzenesulfonamide]
≤ 10 µM: [7] | [3] | [4]

O=C(c1cc(NS(=O)(=O)c2cccc(C(F)(F)F)c2)ccc1F)c1c[nH]c2ncc(Cl)cc12 [P-2108, N-[3-(5-Chloro-1H-pyrrolo[2,3-b]pyridine-3-carbonyl)-4-fluoro-phenyl]-3-trifluoromethyl-benzenesulfonamide]
not listed: [1] | [2]
≤ 10 µM: all other assays above

O=C(c1cc(NS(=O)(=O)c2cccc(OC(F)(F)F)c2)ccc1F)c1c[nH]c2ncc(Cl)cc12 [P-2110, N-[3-(5-Chloro-1H-pyrrolo[2,3-b]pyridine-3-carbonyl)-4-fluoro-phenyl]-3-trifluoromethoxy-benzenesulfonamide]
not listed: [1] | [2]
≤ 10 µM: all other assays above

O=C(c1cc(NS(=O)(=O)c2ccc(C(F)(F)F)cc2)ccc1F)c1c[nH]c2ncc(Cl)cc12 [P-2112, N-[3-(5-Chloro-1H-pyrrolo[2,3-b]pyridine-3-carbonyl)-4-fluoro-phenyl]-4-trifluoromethyl-benzenesulfonamide]
≤ 10 µM: [7] | [3] | [5]

O=C(c1cccc(NS(=O)(=O)c2ccc(F)cc2)c1)c1c[nH]c2ncc(Cl)cc12 [P-2121, N-[3-(5-Chloro-1H-pyrrolo[2,3-b]pyridine-3-carbonyl)-phenyl]-4-fluoro-benzenesulfonamide]
≤ 10 µM: [7] | [3] | [4]

O=C(c1cccc(NS(=O)(=O)c2cccc(C(F)(F)F)c2)c1)c1c[nH]c2ncc(Cl)cc12 [P-2122, N-[3-(5-Chloro-1H-pyrrolo[2,3-b]pyridine-3-carbonyl)-phenyl]-3-trifluoromethyl-benzenesulfonamide]
≤ 10 µM: [7] | [3] | [4]

O=C(c1cccc(NS(=O)(=O)c2ccc(OC(F)(F)F)cc2)c1)c1c[nH]c2ncc(Cl)cc12 [P-2123, N-[3-(5-Chloro-1H-pyrrolo[2,3-b]pyridine-3-carbonyl)-phenyl]-4-trifluoromethoxy-benzenesulfonamide]
≤ 10 µM: [7] | [3] | [5]

O=C(c1cccc(NS(=O)(=O)c2cccc(OC(F)(F)F)c2)c1)c1c[nH]c2ncc(Cl)cc12 [P-2124, N-[3-(5-Chloro-1H-pyrrolo[2,3-b]pyridine-3-carbonyl)-phenyl]-3-trifluoromethoxy-benzenesulfonamide]
≤ 10 µM: [7] | [3] | [4]

O=C(c1cccc(NS(=O)(=O)c2cccc(Cl)c2)c1)c1c[nH]c2ncc(Cl)cc12 [P-2125, 3-Chloro-N-[3-(5-chloro-1H-pyrrolo[2,3-b]pyridine-3-carbonyl)-phenyl]-benzenesulfonamide]
≤ 10 µM: [7] | [3] | [4]

O=C(c1cccc(NS(=O)(=O)c2cccc(F)c2)c1)c1c[nH]c2ncc(Cl)cc12 [P-2127, N-[3-(5-Chloro-1H-pyrrolo[2,3-b]pyridine-3-carbonyl)-phenyl]-3-fluoro-benzenesulfonamide]
not listed: [1] | [2]
≤ 10 µM: all other assays above

O=C(c1cccc(NS(=O)(=O)c2ccc(Cl)cc2)c1)c1c[nH]c2ncc(Cl)cc12 [P-2128, 4-Chloro-N-[3-(5-chloro-1H-pyrrolo[2,3-b]pyridine-3-carbonyl)-phenyl]-benzenesulfonamide]
≤ 10 µM: [7] | [3] | [4] | [5]

CCCS(=O)(=O)Nc1ccc(F)c(C(=O)c2c[nH]c3ncc(-c4cc(C)nn4C)cc23)c1F [P-2195, Propane-1-sulfonic acid {3-[5-(2,5-dimethyl-2H-pyrazol-3-yl)-1H-pyrrolo[2,3-b]pyridine-3-carbonyl]-2,4-difluoro-phenyl}-amide]
not listed: [2] | [7]
≤ 10 µM: all other assays above

CCCS(=O)(=O)Nc1ccc(F)c(C(=O)c2c[nH]c3ncc(C#CCN(CC)CC)cc23)c1F [P-2241, Propane-1-sulfonic acid {3-[5-(3-diethylamino-prop-1-ynyl)-1H-pyrrolo[2,3-b]pyridine-3-carbonyl]-2,4-difluoro-phenyl}-amide]
≤ 10 µM: [7] | [3] | [4]

CCCC(C)S(=O)(=O)Nc1ccc(F)c(C(=O)c2c[nH]c3ncc(Cl)cc23)c1F (stereo not shown) [P-2311, Pentane-2-sulfonic acid [3-(5-chloro-1H-pyrrolo[2,3-b]pyridine-3-carbonyl)-2,4-difluoro-phenyl]-amide]
not listed: [5] | [7]
≤ 10 µM: all other assays above

O=C(c1c(F)ccc(NS(=O)(=O)CCC(F)(F)F)c1F)c1c[nH]c2ncc(-c3ccc(Cl)cc3)cc12 [P-2325, 3,3,3-Trifluoro-propane-1-sulfonic acid {3-[5-(4-chloro-phenyl)-1H-pyrrolo[2,3-b]pyridine-3-carbonyl]-2,4-difluoro-phenyl}-amide]
≤ 10 µM: [1] | [3]

O=C(c1c(F)ccc(NS(=O)(=O)C2CC2)c1F)c1c[nH]c2ncc(Br)cc12 [P-2348, Cyclopropanesulfonic acid [3-(5-bromo-1H-pyrrolo[2,3-b]pyridine-3-carbonyl)-2,4-difluoro-phenyl]-amide]
≤ 10 µM: [7] | [3] | [4] | [6]

CN(C)S(=O)(=O)Nc1cccc(C(=O)c2c[nH]c3ncc(-c4ccc(Cl)cc4)cc23)c1F [P-2423, N,N-dimethylamino-sulfonic acid {3-[5-(4-chloro-phenyl)-1H-pyrrolo[2,3-b]pyridine-3-carbonyl]-2-fluoro-phenyl}-amide]
≤ 10 µM: [7] | [4] | [6]

O=C(c1cccc(NS(=O)(=O)N2CCCC2)c1F)c1c[nH]c2ncc(-c3ccc(Cl)cc3)cc12 [P-2425, Pyrrolidine-1-sulfonic acid {3-[5-(4-chloro-phenyl)-1H-pyrrolo[2,3-b]pyridine-3-carbonyl]-2-fluoro-phenyl}-amide]
not listed: [1] | [3]
≤ 10 µM: all other assays above

CCCCS(=O)(=O)Nc1ccc(F)c(C(=O)c2c[nH]c3ncc(Cl)cc23)c1 [P-2435, Butane-1-sulfonic acid [3-(5-chloro-1H-pyrrolo[2,3-b]pyridine-3-carbonyl)-4-fluoro-phenyl]-amide]
≤ 10 µM: [7] | [3] | [4] | [6]

O=C(c1cc(NS(=O)(=O)C2CC2)ccc1F)c1c[nH]c2ncc(Cl)cc12 [P-2436, Cyclopropanesulfonic acid [3-(5-chloro-1H-pyrrolo[2,3-b]pyridine-3-carbonyl)-4-fluoro-phenyl]-amide]
≤ 10 µM: [7] | [3] | [4] | [6]

CCCCS(=O)(=O)Nc1ccc(F)c(C(=O)c2c[nH]c3ncccc23)c1 [P-2438, Butane-1-sulfonic acid [4-fluoro-3-(1H-pyrrolo[2,3-b]pyridine-3-carbonyl)-phenyl]-amide]
≤ 10 µM: [7] | [3] | [4]

O=C(c1cc(NS(=O)(=O)C2CC2)ccc1F)c1c[nH]c2ncccc12 [P-2439, Cyclopropanesulfonic acid [4-fluoro-3-(1H-pyrrolo[2,3-b]pyridine-3-carbonyl)-phenyl]-amide]
≤ 10 µM: [7] | [4]

CCCCS(=O)(=O)Nc1cccc(C(=O)c2c[nH]c3ncc(Cl)cc23)c1 [P-2450, Butane-1-sulfonic acid [3-(5-chloro-1H-pyrrolo[2,3-b]pyridine-3-carbonyl)-phenyl]-amide]
≤ 10 µM: [7] | [3] | [4] | [6]

O=C(c1cccc(NS(=O)(=O)C2CC2)c1)c1c[nH]c2ncc(Cl)cc12 [P-2451, Cyclopropanesulfonic acid [3-(5-chloro-1H-pyrrolo[2,3-b]pyridine-3-carbonyl)-phenyl]-amide]
≤ 10 µM: [7] | [3] | [4]
